Reference: patent US20050245399A1, “Pyrazole derivatives as herbicidal compositions containing them” (ISHIHARA SANGYO KAISHA, LTD., priority 2004, published 2005)

Assays:
Type in all cases: in vivo
[1] = test system: corn (Zea mays L.): ZEAMX; assay: Test Example 1 pre-emergence herbicidal activity, ZEAMX; details: visually observed 20th to 23rd day after application
Outline: (§1)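 Herbicidal effect in pre-emergence treatment: formulated compound sprayed at 500 L/ha water one day after sowing in upland field soil pots, with visual 0–100% growth-control scores recorded 20–23 days after application.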

[2] = test system: wheat (Triticum aestivum L.), TRZAX; assay: Test Example 2 post-emergence (foliage treatment) herbicidal activity, TRZAX; details: 63 g a.i./ha
Outline: (§2)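 Each species was evaluated for growth suppression by eye, 0% matching untreated and 100% meaning death, some 20 to 23 days after a single post-emergence foliar treatment applied in 500 L/ha of water carrying 0.1% (v/v) agricultural spreader.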

[3] = test system: green foxtail (Setaria viridis L.), SETVI; assay: Test Example 2 post-emergence (foliage treatment) herbicidal activity, SETVI; details: 63 g a.i./ha
Outline: as §2

[4] = test system: wheat (Triticum aestivum L.): TRZAX; assay: Test Example 1 pre-emergence herbicidal activity, TRZAX; details: visually observed 20th to 23rd day after application
Outline: as §1

[5] = test system: velvetleaf (Abutilon theophrasti): ABUTH; assay: Test Example 1 pre-emergence herbicidal activity, ABUTH; details: visually observed 20th to 23rd day after application
Outline: as §1

[6] = test system: rice (Oryza sativa L.): ORYSA; assay: Test Example 1 pre-emergence herbicidal activity, ORYSA; details: visually observed 20th to 23rd day after application
Outline: as §1

[7] = test system: prickly sida (Sida spinosa L.), SIDSP; assay: Test Example 2 post-emergence (foliage treatment) herbicidal activity, SIDSP; details: 63 g a.i./ha
Outline: as §2

[8] = test system: japanese bulrush (Scirpus juncoides: SCPJO); assay: Test Example 3 water application herbicidal activity (paddy), SCPJO; details: 63 g a.i./ha, water application under submerged condition at 0.5 leaf stage, visually observed 14th day after application; 0 = untreated control, 100 = complete kill
Outline: (§3)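 Compound, as diluted wettable powder or emulsifiable concentrate, was pipetted into flood water at a set active-ingredient dose. Weeds were treated at 0.5-leaf stage after sowing or tuber planting; 2-leaf rice 4 days post-transplant. Control scored visually, 0 untreated to 100 complete kill, weeds day 14, rice day 21.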

[9] = test system: green foxtail (Setaria viridis L.): SETVI; assay: Test Example 1 pre-emergence herbicidal activity, SETVI; details: visually observed 20th to 23rd day after application
Outline: as §1

[10] = test system: crabgrass (Digitaria sanguinalis L.), DIGSA; assay: Test Example 2 post-emergence (foliage treatment) herbicidal activity, DIGSA; details: 63 g a.i./ha
Outline: (§4)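 A small sprayer delivered the diluted WP or EC formulation (500 L/ha water, 0.1% v/v spreader) over emerged seedlings in upland soil pots. Damage relative to untreated plants was graded visually from 0 to 100% three weeks or so later (days 20-23).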

[11] = test system: prickly sida (Sida spinosa L.): SEDSP; assay: Test Example 1 pre-emergence herbicidal activity, SIDSP; details: visually observed 20th to 23rd day after application
Outline: as §1

[12] = test system: redroot pigweed (Amaranthus retroflexus L.): AMARE; assay: Test Example 1 pre-emergence herbicidal activity, AMARE; details: visually observed 20th to 23rd day after application
Outline: as §1

[13] = test system: barnyardgrass (Echinochloa crus-galli L.): ECHCG; assay: Test Example 1 pre-emergence herbicidal activity, ECHCG; details: visually observed 20th to 23rd day after application
Outline: as §1

[14] = test system: crabgrass (Digitaria sanguinalis L.): DIGSA; assay: Test Example 1 pre-emergence herbicidal activity, DIGSA; details: visually observed 20th to 23rd day after application
Outline: as §1

[15] = test system: velvetleaf (Abutilon theophrasti), ABUTH; assay: Test Example 2 post-emergence (foliage treatment) herbicidal activity, ABUTH; details: 63 g a.i./ha
Outline: as §2

[16] = test system: redroot pigweed (Amaranthus retroflexus L.), AMARE; assay: Test Example 2 post-emergence (foliage treatment) herbicidal activity, AMARE; details: 63 g a.i./ha
Outline: as §4

[17] = test system: soybean (Glycine max Merr.), GLXMA; assay: Test Example 2 post-emergence (foliage treatment) herbicidal activity, GLXMA; details: 63 g a.i./ha
Outline: as §2

[18] = test system: japanese ribbon wapato (Sagittaria pygmaea: SA GPY); assay: Test Example 3 water application herbicidal activity (paddy), SAGPY; details: 63 g a.i./ha, water application under submerged condition, tubers planted, visually observed 14th day after application; 0 = untreated control, 100 = complete kill
Outline: as §3

[19] = test system: rice (Oryza sativa L.: ORYSA); assay: Test Example 3 water application herbicidal activity (paddy), transplanted rice ORYSA; details: 63 g a.i./ha, water application 4th day after transplantation of 2 leaf stage rice, visually observed 21st day after application; 0 = untreated control, 100 = complete kill
Outline: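 Submerged application in flooded paddy soil (3–4 cm water); weeds treated at 0.5-leaf stage, transplanted rice 4 d after transplanting. Scored visually as % growth control: weeds at 14 d, rice at 21 d.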

[20] = test system: rice (Oryza sativa L.), ORYSA; assay: Test Example 2 post-emergence (foliage treatment) herbicidal activity, ORYSA; details: 63 g a.i./ha
Outline: as §4

[21] = test system: corn (Zea mays L.), ZEAMX; assay: Test Example 2 post-emergence (foliage treatment) herbicidal activity, ZEAMX; details: 63 g a.i./ha
Outline: as §2

[22] = test system: barnyardgrass (Echinochloa crus-galli L.), ECHCG; assay: Test Example 2 post-emergence (foliage treatment) herbicidal activity, ECHCG; details: 63 g a.i./ha
Outline: as §4

[23] = test system: soybean (Glycine max Merr.): GLXMA; assay: Test Example 1 pre-emergence herbicidal activity, GLXMA; details: visually observed 20th to 23rd day after application
Outline: as §1

[24] = test system: barnyardgrass (Echinochiloa oryzicola: ECHOR); assay: Test Example 3 water application herbicidal activity (paddy), ECHOR; details: 63 g a.i./ha, water application under submerged condition at 0.5 leaf stage, visually observed 14th day after application; 0 = untreated control, 100 = complete kill
Outline: as §3

Structure (SMILES) | Pre-emergence Herbicidal Activity ZEAMX (growth controlling degree) ([1]; Rate 63 g a.i./ha) [%] | growth controlling degree, TRZAX [2] [%] | growth controlling degree, SETVI [3] [%] | Pre-emergence Herbicidal Activity TRZAX (growth controlling degree) ([4]; Rate 63 g a.i./ha) [%] | Pre-emergence Herbicidal Activity ABUTH (growth controlling degree) ([5]; Rate 63 g a.i./ha) [%] | Pre-emergence Herbicidal Activity ORYSA (growth controlling degree) ([6]; Rate 63 g a.i./ha) [%] | growth controlling degree, SIDSP [7] [%] | growth controlling degrees (%) SCPJO [8] [%] | Pre-emergence Herbicidal Activity SETVI (growth controlling degree) ([9]; Rate 63 g a.i./ha) [%] | growth controlling degree, DIGSP [10] [%] | Pre-emergence Herbicidal Activity SIDSP (growth controlling degree) ([11]; Rate 63 g a.i./ha) [%] | growth controlling degree, ABUTH [15] [%] | growth controlling degree, AMARE [16] [%] | growth controlling degree, GLXMA [17] [%] | growth controlling degrees (%) SAGPY [18] [%] | growth controlling degrees (%) ORYSA [19] [%] | growth controlling degree, ORYSA [20] [%] | growth controlling degree, ZEAMX [21] [%] | growth controlling degree, ECHCO [22] [%] | growth controlling degrees (%) ECHOR [24] [%] | also measured
Cn1nc(-c2c(F)cc(Cl)c(OC(F)F)c2NC(=O)C(F)(F)F)c(Cl)c1OC(F)F [Compound 1-83] | 20 | 10 | 100 | 10 | 80 | 60 | 100 | 95 | 100 | 100 | 100 | 100 | 100 | 60 | 80 | 50 | 50 | 80 | 100 | 100 | Pre-emergence Herbicidal Activity AMARE (growth controlling degree) ([12]; Rate 63 g a.i./ha): 100%; Pre-emergence Herbicidal Activity ECHCG (growth controlling degree) ([13]; Rate 63 g a.i./ha): 90%; Pre-emergence Herbicidal Activity DIGSP (growth controlling degree) ([14]; Rate 63 g a.i./ha): 100%; Pre-emergence Herbicidal Activity GLXMA (growth controlling degree) ([23]; Rate 63 g a.i./ha): 60%
COc1c(Cl)cc(F)c(-c2nn(C)c(OC(F)F)c2Cl)c1N(C=O)C(C)C [Compound 1-8] | 40 | 50 | 100 | 50 | 100 | 60 | 100 | 60 | 100 | 60 | 100 | 100 | 100 | 70 | 20 | 30 | 60 | 40 | 70 | 80 | Pre-emergence Herbicidal Activity AMARE (growth controlling degree) ([12]; Rate 63 g a.i./ha): 100%; Pre-emergence Herbicidal Activity ECHCG (growth controlling degree) ([13]; Rate 63 g a.i./ha): 70%; Pre-emergence Herbicidal Activity DIGSP (growth controlling degree) ([14]; Rate 63 g a.i./ha): 60%; Pre-emergence Herbicidal Activity GLXMA (growth controlling degree) ([23]; Rate 63 g a.i./ha): 70%
COc1c(Cl)cc(F)c(-c2nn(C)c(OC(F)F)c2Cl)c1N(C(=O)OCCl)C(=O)OCCl [Compound 1-55] | – | 10 | 30 | – | – | – | 100 | 95 | – | 0 | – | 100 | 100 | 30 | 100 | 50 | 50 | 10 | 60 | 100 | Pre-emergence Herbicidal Activity ZEAMX (growth controlling degree) ([1]; Rate 125 g a.i./ha): 0%; Pre-emergence Herbicidal Activity TRZAX (growth controlling degree) ([4]; Rate 125 g a.i./ha): 20%; Pre-emergence Herbicidal Activity ABUTH (growth controlling degree) ([5]; Rate 125 g a.i./ha): 70%; Pre-emergence Herbicidal Activity ORYSA (growth controlling degree) ([6]; Rate 125 g a.i./ha): 10%; Pre-emergence Herbicidal Activity SETVI (growth controlling degree) ([9]; Rate 125 g a.i./ha): 100%; Pre-emergence Herbicidal Activity SIDSP (growth controlling degree) ([11]; Rate 125 g a.i./ha): 95%; Pre-emergence Herbicidal Activity AMARE (growth controlling degree) ([12]; Rate 125 g a.i./ha): 100%; Pre-emergence Herbicidal Activity ECHCG (growth controlling degree) ([13]; Rate 125 g a.i./ha): 50%; Pre-emergence Herbicidal Activity DIGSP (growth controlling degree) ([14]; Rate 125 g a.i./ha): 95%; Pre-emergence Herbicidal Activity GLXMA (growth controlling degree) ([23]; Rate 125 g a.i./ha): 0%
COc1ccc(OC(=O)N(C(=O)Oc2ccc(OC)cc2)c2c(OC)c(Cl)cc(F)c2-c2nn(C)c(OC(F)F)c2Cl)cc1 [Compound 1-65] | – | 0 | 0 | – | – | – | 0 | 0 | – | 0 | – | 0 | 10 | 10 | 0 | 20 | 0 | 0 | 0 | 50 | Pre-emergence Herbicidal Activity ZEAMX (growth controlling degree) ([1]; Rate 125 g a.i./ha): 0%; Pre-emergence Herbicidal Activity TRZAX (growth controlling degree) ([4]; Rate 125 g a.i./ha): 0%; Pre-emergence Herbicidal Activity ABUTH (growth controlling degree) ([5]; Rate 125 g a.i./ha): 10%; Pre-emergence Herbicidal Activity ORYSA (growth controlling degree) ([6]; Rate 125 g a.i./ha): 0%; Pre-emergence Herbicidal Activity SETVI (growth controlling degree) ([9]; Rate 125 g a.i./ha): 10%; Pre-emergence Herbicidal Activity SIDSP (growth controlling degree) ([11]; Rate 125 g a.i./ha): 10%; Pre-emergence Herbicidal Activity AMARE (growth controlling degree) ([12]; Rate 125 g a.i./ha): 20%; Pre-emergence Herbicidal Activity ECHCG (growth controlling degree) ([13]; Rate 125 g a.i./ha): 0%; Pre-emergence Herbicidal Activity DIGSP (growth controlling degree) ([14]; Rate 125 g a.i./ha): 0%; Pre-emergence Herbicidal Activity GLXMA (growth controlling degree) ([23]; Rate 125 g a.i./ha): 0%
C#CCNc1c(OC(F)F)c(Cl)cc(F)c1-c1nn(C)c(OC(F)F)c1Cl [Compound 1-87] | 0 | 50 | 100 | 10 | 80 | 60 | 100 | 100 | 100 | 100 | 98 | 100 | 100 | 95 | 100 | 70 | 70 | 100 | 100 | 100 | Pre-emergence Herbicidal Activity AMARE (growth controlling degree) ([12]; Rate 63 g a.i./ha): 100%; Pre-emergence Herbicidal Activity ECHCG (growth controlling degree) ([13]; Rate 63 g a.i./ha): 100%; Pre-emergence Herbicidal Activity DIGSP (growth controlling degree) ([14]; Rate 63 g a.i./ha): 100%; Pre-emergence Herbicidal Activity GLXMA (growth controlling degree) ([23]; Rate 63 g a.i./ha): 40%
